Values belong to the compound of their own block, whether it stands above or below them.
Experiments:
[1] = general knowledge, no reference given; cited from earlier work
α7 nAChR [2] = target: T1, α7 nAChR (Homo sapiens, UniProt P36544); test: α7 concentration-response on co-application with 10 µM PNU-120596; assay type: cell-based; conditions: peak currents, co-applied with 10 µM PNU-120596, Hill fit
T1 construct: expressed in transfected cells; host or cells: Xenopus laevis oocytes (injected RNA)
Description: (§1) Compounds were co-applied at a concentration of 100 µM with 30 µM racemic TQS (Figure 3A). All compounds except S4, S5, and S8 gave large responses when co-applied with TQS, consistent with silent agonism of α7 (see Table S1 for ANOVA). Active compounds were also evaluated across a range of concentrations with the alternative PAM, PNU-120596 (Figure 3B). The curve-fit values for Imax (Table 1) should be taken only as approximation of the relative efficacies of the compounds, due to the large variability frequently observed in PNU-120596-potentiated responses, as evidenced by the large SEMs of the responses obtained with high concentrations.
(§2) Figure 3 Responses of α7 nAChR to sulfonium compounds coapplied with PAMs. (A) Potentiation of α7 responses with 30 µM racemic TQS. Shown are the average net-charge responses of seven or eight oocytes ± SEM. (B) Concentration-response studies of peak currents generated by compounds that gave positive responses with TQS, coapplied with 10 µM PNU-120596. Each point represents the average (±SEM) of at least four oocytes.
(§3) Experiments were conducted using OpusXpress 6000A (Molecular Devices, Union City, CA, USA). Both the voltage and current electrodes were filled with 3 M KCl. Oocytes were voltage-clamped at −60 mV at room temperature (24 °C). The oocytes were bath-perfused with Ringer’s solution (115 mM NaCl, 2.5 mM KCl, 1.8 mM CaCl2, 10 mM HEPES, and 1 μM atropine, pH 7.2) at 2 mL/min for α7 receptors, or 4 mL/min for heteromeric nAChR. To evaluate the effects of experimental compounds, responses were compared to control ACh-evoked responses, defined as the average of two initial applications of ACh made before test applications. ACh control concentrations were 60 µM for α7 receptors; 100 µM for α4(3)β2(2) and α3β4 receptors; 30 µM for α4β2α6β2β3 and muscle-type (αβ1εδ) receptors; and 10 µM for α4(3)β2(2) and α4(2)β2(2)α5 receptors.
(§4) Solutions were applied from 96-well plates via disposable tips. Drug applications were 12 s in duration, followed by 181 s washout periods for α7 receptors, or 6 s in duration followed by 301 s washout periods for heteromeric nAChR. The responses were calculated as both peak current amplitudes and net charge, as previously described. Data were collected at 50 Hz, filtered at 20 Hz for α7 receptors or filtered at 5 Hz for heteromeric nAChR, and analyzed by Clampfit (Molecular Devices, San Jose, CA, USA) and Excel (Microsoft, Redmond, WA, USA). Data were expressed as means ± SEM from at least four oocytes for each experiment and plotted with Kaleidagraph 4.5.2 (Abelbeck Software, Reading, PA, USA). Multi-cell averages were calculated for comparisons of complex responses. Averages of the normalized data were calculated for each of the 10,322 points in each of the 206.44 s traces (acquired at 50 Hz), as well as the standard errors for those averages.

[3] = set-up: method as in PMID 11456386; conditions: cited from earlier work
α7 nAChR [4] = target: T1, α7 nAChR; test: α7 responses on co-application with the type II PAM TQS (silent agonism); assay type: cell-based
Description: as §1, §2
The human nAChR clones were obtained from Jon Lindstrom (University of Pennsylvania, Philadelphia, PA, USA). Mouse muscle subunit clones were obtained from Jim Boulter (Salk Institute, La Jolla, CA, USA) and Paul Gardner (Dartmouth, Hanover, NH, USA). The human resistance-to-cholinesterase 3 (RIC3) clone was obtained from Millet Treinin (Hebrew University, Jerusalem, Israel) and co-injected with α7 to improve the level and speed of α7 receptor expression without affecting the pharmacological properties of the receptors. Subsequent to linearization and purification of the plasmid DNAs, RNAs were prepared using the mMessage mMachine in vitro RNA transcription kit (Ambion, Austin, TX, USA).
as §3, §4

α7 nAChR [5] = target: T1, α7 nAChR; test: Inhibition of α7 ACh-evoked responses; assay type: cell-based
Description: Figure 4 Effects sulfonium compounds on α7 ACh-evoked net-charge responses. (A) Effects of the sulfonium compounds at 100 µM co-applied with 60 µM relative to responses to 60 µM ACh applied alone. Data are the averages (±SEM) from seven or eight cells under each condition. (B) Effects of select sulfonium compounds at 1 mM co-applied with 60 µM relative to responses to 60 µM ACh applied alone. Data are the averages (±SEM) from seven or eight cells under each condition. Statistical significance was determined by pairwise t-test with p values corrected for multiple comparisons; * p < 0.05, ** p < 0.001.
The sulfonium compounds that were active with TQS but produced little inhibition of ACh response at a concentration of 100 µM were tested as inhibitors of ACh response at a concentration of 1 mM (Figure 4B).
We tested S8 across a range of concentrations for its ability to inhibit 60 µM ACh responses (Figure 5A). Note that we use 60 µM as an ACh control because this concentration gives nearly maximal (93%) net-charge responses, with the time course of the responses roughly following the speed of solution exchange. […] We tested whether inhibition of α7 responses by S8 was surmountable by increasing ACh concentration, consistent with a competitive mechanism of inhibition. However, since α7 responses to concentrations of ACh greater than 60 µM occur more rapidly than solution exchange in the chamber, we first pre-applied 5 µM S8 prior to the co-application of 5 µM S8 with either 60 µM or 1 mM ACh (Figure 5B). The 60 µM net-charge responses were reduced to 28 ± 2% of controls (n = 8) and 60 µM peak currents to 21 ± 3 % controls. The 1 mM net-charge responses were reduced to 56 ± 6 % of those obtained without S8 co-application, although the S8 co-application increased the peak-current amplitudes compared to 60 µM controls from 1.78 ± 0.15 to 3.72 ± 0.81 (n = 8).
Figure 5 Inhibition of α7 ACh-evoked responses by S8. (A) Concentration-response studies of α7 net-charge responses to 60 µM ACh co-applied with increasing concentrations of S8. To confirm the stability of the ACh responses, applications of ACh plus S8 were alternated with applications of ACh alone. Data are the averages of eight cells (±SEM). See text for curve-fit values. (B) Effects of 5 µM S8 on responses to either 60 µM or 1 mM ACh. The traces shown across the top are the averaged raw data from seven cells, each normalized to the peak current of the first ACh control response shown. In order to assure that the S8 was present at 5 µM throughout the ACh-evoked responses, a 30 s pre-application was made of 5 µM S8 alone. The lower traces show averaged responses to 60 µM or 1 mM ACh alone or with the 5 µM S8 pre- and co-application. The details of the data are described in Methods.
as §3
Solutions were applied from 96-well plates via disposable tips. Drug applications were 12 s in duration, followed by 181 s washout periods for α7 receptors, or 6 s in duration followed by 301 s washout periods for heteromeric nAChR. […]

α3β4 nAChR = target: T2, α3β4 nAChR (Homo sapiens, UniProt P30926+P32297); test: Inhibition of α3β4 100 µM ACh-evoked peak currents; assay type: cell-based
T2 construct: expressed in transfected cells; host or cells: Xenopus laevis oocytes (injected RNA)
Description: Although none of the other sulfonium compounds activated neuronal heteromeric receptors, several of them produced inhibition of ACh-evoked responses. Shown in Figure 7A are concentration-response studies for the compounds that were active antagonists of α3β4 nAChR (Table 3). Some compounds were also tested as antagonists of α4β2 subtypes formed with concatamers (Figure 7B).
Figure 7 Inhibition of heteromeric nAChR by sulfonium compounds. (A) Inhibition of α3β4 100 µM ACh-evoked peak currents by the co-application of the sulfonium compounds. Data are the averaged of six to eight oocytes (±SEM). To confirm the stability of the ACh responses, applications of ACh plus the sulfonium compounds were alternated with applications of ACh alone. (B) Inhibition of ACh control peak-current responses of α4-containing nAChR formed with concatamers by 100 µM of the sulfonium compounds indicated. Data are the average of six to eight oocytes (±SEM).
as §3, §4

ganglionic (α3β4) nAChR = test system: ganglionic (α3β4) nAChR; set-up: method as in earlier work; conditions: 100 µM suplatast; ref 29 (Zhou et al.); cited from earlier work
human α7 receptors = target: T3, human α7 receptors (Homo sapiens, UniProt P36544); set-up: method as in PMID 12183330; conditions: 60 µM ACh; cited from earlier work
T3 construct: expressed in transfected cells; host or cells: Xenopus laevis oocytes (injected RNA)

[6] = target: T4, muscle-type (α1β1εδ) receptors (Mus musculus, UniProt P02716+P04756+P20782); conditions: cited from earlier work
T4 construct: expressed in transfected cells; host or cells: Xenopus laevis oocytes (injected RNA)
T4 sequence (P04756 21-457): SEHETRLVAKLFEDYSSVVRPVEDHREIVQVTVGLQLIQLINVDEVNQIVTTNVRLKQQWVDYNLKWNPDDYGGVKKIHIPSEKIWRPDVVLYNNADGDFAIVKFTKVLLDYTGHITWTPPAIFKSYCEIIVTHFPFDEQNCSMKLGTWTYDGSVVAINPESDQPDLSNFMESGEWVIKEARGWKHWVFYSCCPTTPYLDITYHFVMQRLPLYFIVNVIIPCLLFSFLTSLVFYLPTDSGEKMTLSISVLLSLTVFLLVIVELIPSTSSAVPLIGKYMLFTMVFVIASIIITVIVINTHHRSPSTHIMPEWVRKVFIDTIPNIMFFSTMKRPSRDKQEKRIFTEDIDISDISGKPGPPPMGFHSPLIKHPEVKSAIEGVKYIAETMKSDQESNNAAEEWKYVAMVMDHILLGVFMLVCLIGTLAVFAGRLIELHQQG
T4 sequence (P09690 24-501 partner): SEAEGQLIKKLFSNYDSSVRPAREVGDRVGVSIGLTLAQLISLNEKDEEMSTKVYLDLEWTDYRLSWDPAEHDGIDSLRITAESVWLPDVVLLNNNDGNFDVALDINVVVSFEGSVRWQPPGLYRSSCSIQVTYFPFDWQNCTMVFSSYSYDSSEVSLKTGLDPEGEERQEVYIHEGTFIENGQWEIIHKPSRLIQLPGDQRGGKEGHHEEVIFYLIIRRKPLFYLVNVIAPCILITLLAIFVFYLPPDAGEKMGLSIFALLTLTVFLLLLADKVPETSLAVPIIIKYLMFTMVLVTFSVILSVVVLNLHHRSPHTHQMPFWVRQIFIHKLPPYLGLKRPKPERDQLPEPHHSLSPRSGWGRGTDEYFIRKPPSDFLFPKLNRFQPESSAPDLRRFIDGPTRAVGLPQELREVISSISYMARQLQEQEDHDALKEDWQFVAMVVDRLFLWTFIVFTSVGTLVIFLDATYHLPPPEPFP
T4 sequence (P20782 21-493): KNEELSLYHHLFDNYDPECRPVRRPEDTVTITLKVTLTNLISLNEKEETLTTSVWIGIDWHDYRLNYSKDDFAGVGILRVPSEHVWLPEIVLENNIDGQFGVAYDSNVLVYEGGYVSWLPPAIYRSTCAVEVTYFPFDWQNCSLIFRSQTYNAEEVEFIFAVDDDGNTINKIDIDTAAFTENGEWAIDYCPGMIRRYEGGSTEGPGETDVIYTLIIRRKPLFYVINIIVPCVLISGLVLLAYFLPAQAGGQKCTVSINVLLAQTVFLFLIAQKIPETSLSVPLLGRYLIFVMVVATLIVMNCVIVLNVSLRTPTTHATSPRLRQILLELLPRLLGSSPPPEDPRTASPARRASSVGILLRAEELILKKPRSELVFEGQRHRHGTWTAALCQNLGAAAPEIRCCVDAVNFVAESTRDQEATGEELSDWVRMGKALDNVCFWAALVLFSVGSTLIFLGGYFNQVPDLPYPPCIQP
T4 sequence (P02716 25-520): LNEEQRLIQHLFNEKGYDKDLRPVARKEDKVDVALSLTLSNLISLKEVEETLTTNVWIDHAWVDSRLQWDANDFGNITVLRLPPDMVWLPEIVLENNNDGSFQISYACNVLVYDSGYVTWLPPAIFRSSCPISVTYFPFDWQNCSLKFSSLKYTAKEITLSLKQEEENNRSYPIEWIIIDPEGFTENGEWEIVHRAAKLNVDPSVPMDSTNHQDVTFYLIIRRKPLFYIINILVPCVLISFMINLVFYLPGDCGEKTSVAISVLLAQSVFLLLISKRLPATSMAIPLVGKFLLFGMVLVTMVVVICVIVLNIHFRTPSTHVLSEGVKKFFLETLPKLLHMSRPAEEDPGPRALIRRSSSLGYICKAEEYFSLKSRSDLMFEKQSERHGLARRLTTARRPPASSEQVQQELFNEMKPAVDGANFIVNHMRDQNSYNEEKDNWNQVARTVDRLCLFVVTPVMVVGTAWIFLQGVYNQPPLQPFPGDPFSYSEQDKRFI

T1 sequence (P36544 23-502): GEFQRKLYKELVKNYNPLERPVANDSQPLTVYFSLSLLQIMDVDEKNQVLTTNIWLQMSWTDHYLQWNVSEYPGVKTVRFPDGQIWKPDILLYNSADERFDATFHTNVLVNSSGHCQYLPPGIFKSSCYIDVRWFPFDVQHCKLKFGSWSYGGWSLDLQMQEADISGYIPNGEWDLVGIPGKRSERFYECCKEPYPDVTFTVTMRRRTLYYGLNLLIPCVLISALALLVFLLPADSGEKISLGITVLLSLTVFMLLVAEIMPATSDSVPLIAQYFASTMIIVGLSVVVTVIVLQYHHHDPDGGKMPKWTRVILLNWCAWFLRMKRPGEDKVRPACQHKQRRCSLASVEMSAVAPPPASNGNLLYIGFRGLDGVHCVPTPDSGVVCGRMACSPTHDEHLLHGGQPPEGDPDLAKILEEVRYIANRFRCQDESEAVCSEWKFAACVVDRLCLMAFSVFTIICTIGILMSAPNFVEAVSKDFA
T2 sequence (P32297 32-505): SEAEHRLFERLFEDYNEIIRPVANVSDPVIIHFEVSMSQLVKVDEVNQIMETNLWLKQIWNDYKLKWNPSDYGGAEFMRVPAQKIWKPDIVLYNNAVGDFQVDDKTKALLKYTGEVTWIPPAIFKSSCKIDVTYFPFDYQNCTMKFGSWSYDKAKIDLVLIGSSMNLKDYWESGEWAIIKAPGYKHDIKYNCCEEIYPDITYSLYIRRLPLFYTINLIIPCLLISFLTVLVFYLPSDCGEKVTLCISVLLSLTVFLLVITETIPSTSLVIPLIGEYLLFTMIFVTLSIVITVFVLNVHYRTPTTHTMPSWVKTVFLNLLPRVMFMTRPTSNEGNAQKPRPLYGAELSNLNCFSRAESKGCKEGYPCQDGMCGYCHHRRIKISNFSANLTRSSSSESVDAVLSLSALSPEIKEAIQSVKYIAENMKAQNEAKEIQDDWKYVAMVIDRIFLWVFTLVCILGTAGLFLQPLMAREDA
T2 sequence (P30926 22-498): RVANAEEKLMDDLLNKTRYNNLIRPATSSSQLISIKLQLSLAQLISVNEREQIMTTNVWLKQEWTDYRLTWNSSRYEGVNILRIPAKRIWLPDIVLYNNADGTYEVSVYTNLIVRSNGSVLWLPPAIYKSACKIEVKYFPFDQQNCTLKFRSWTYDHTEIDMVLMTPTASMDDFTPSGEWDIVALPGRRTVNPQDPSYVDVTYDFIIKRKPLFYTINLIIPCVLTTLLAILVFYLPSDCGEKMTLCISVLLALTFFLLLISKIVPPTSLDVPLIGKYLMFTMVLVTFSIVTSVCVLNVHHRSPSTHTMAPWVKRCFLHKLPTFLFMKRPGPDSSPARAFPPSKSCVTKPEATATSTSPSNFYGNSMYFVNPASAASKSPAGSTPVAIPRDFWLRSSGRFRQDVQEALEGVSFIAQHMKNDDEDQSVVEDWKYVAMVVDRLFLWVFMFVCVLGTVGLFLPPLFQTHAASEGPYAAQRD
T3 sequence (P36544 23-502): as the sequence (P36544 23-502) above

Compound: O=[N+]([O-])c1ccc(O)cc1 [para-nitrophenol]
pKa for the phenolic hydroxyl [1]: ~ 7

IMax (PNU Activation) (α7 nAChR [2]; approximation only): 2.2 ± 0.3 | EC50 (α7 nAChR [2]; read-out: EC50 (PNU Activation)): 12.5 ± 4.9 µM | α7 functional classification (silent agonist / inactive) (α7 nAChR [4]; inactive alone, active with a PAM = silent agonist): silent agonist activity | inhibition at 100 µM (α7 nAChR [5]; compound co-applied at 100 µM, net charge, read-out: inhibition of responses to 60 µM ACh): ~50% | IC50 (α3β4 nAChR; co-application with 100 µM ACh, peak currents): 4.5 ± 0.6 µM
Compound: CCOCC(O)COc1ccc(NC(=O)CC[S+](C)C)cc1.Cc1ccc(S(=O)(=O)[O-])cc1 (centres unmarked) [Compound S6, (3-((4-(3-ethoxy-2-hydroxypropoxy)phenyl)amino)-3-oxopropyl)dimethylsulfonium tosylate, reference compound]
distribution to the brain [3]: poor | oral bioavailability [3]: orally bioavailable | relative activity as α7 silent agonist / desensitizer (rank order) (α7 nAChR [4]; 100 µM with 30 µM TQS, Figure 3A, listed as suplatast): most desensitizing | surmountability of α3β4 inhibition by ACh (α3β4 nAChR; 5 µM S6, 1 mM ACh vs 30 µM ACh, data not shown): not surmountable by increasing ACh concentration | effect on ganglionic (α3β4) nAChR (ganglionic (α3β4) nAChR): channel block

Compound: CC(=O)OCC[N+](C)(C)C [ACh, Acetylcholine chloride, reference compound]
net-charge response as share of maximal (human α7 receptors): 93% | 1 mM ACh peak-current amplitudes compared to 60 µM controls (α7 nAChR [5]; 1 mM ACh without S8, n = 8): 1.78 ± 0.15

Compound: C[N+](C)(C)C [TMA, tetramethylammonium ion]
activation of muscle-type receptors [6]: not an effective activator

Reference: PMC8464850, “Sulfonium Ligands of the α7 nAChR” (Molecules, 2021)
